In patent publication US20100022393A1, “Glyphosate applications in aquaculture” (priority 2008, published 2010):

Experiments:
[1] = tested on: Nannochloropsis culture; test: Nannochloropsis growth in F2 media in seawater, optical density at 680 and 750 nm; assay type: cell-based; conditions: for effect on Nannochloropsis growth: various concentrations, F2 media in seawater, after approximately six days, optical density 680 and 750 nm; for IC50: 144 h, read-out: concentration that inhibited Nannochloropsis growth by approximately fifty percent (50%)
Experimental: According to one exemplary method, thirty (30) microliters of a Nannochloropsis culture was introduced into seven (7) milliliters of F2 media in seawater. The mixture was distributed evenly between six well plates. Glyphosate was added at various concentrations. Additional well plates were inoculated with the same Nannochloropis culture, however, the well plates were not treated with glyphosate. After approximately six days, optical density measurements at both 680 and 750 nanometers were taken in triplicate for each of the various glyphosate concentrations.
According to one exemplary method, thirty (30) microliters of a Nannochloropsis culture were inoculated into seven (7) milliliters of F2 media in seawater. The mixture was distributed evenly between six well plates. Ammonium chloride was added at various concentrations. Additional well plates were inoculated with the same Nannochloropis culture, but were not treated with ammonium chloride. After approximately six days, optical density measurements at both 680 and 750 nanometers were taken in triplicate for each of the various ammonium chloride concentrations.
According to one exemplary method, thirty (30) microliters of a Nannochloropsis culture were inoculated into seven (7) milliliters of F2 media in seawater. The mixture was distributed evenly between six well plates. Ammonium hydroxide was added at various concentrations. Additional well plates were inoculated with the same Nannochloropsis culture, but were not treated with ammonium hydroxide. After approximately six days, optical density measurements at both 680 and 750 nanometers were taken in triplicate for each of the various ammonium hydroxide concentrations.
According to one exemplary method, thirty (30) microliters of a Nannochloropsis culture was introduced into seven (7) milliliters of F2 media in seawater. The mixture was distributed evenly between six well plates. Glufosinate was added at various concentrations. Additional well plates were inoculated with the same Nannochloropsis culture, however, the well plates were not treated with glufosinate. After approximately six days, optical density measurements at both 680 and 750 nanometers were taken in triplicate for each of the various glufosinate concentrations.

[2] = tested on: Dunaliella culture; test: Dunaliella growth in F2 media in seawater, optical density at 680 and 750 nm; assay type: cell-based; conditions: for effect on Dunaliella growth: various concentrations, F2 media in seawater, after approximately six days, optical density 680 and 750 nm
Experimental: According to one exemplary method, thirty (30) microliters of a Dunaliella culture were inoculated into seven (7) milliliters of F2 media within seawater. The mixture was distributed evenly between six well plates. Glyphosate was added at various concentrations. Additional well plates were inoculated with the same Dunaliella culture, but were not treated with glyphosate. After approximately six days, optical density measurements at both 680 and 750 nanometers were taken in triplicate for each of the various glyphosate concentrations.
According to one exemplary method, thirty (30) microliters of a Dunaliella culture were inoculated into seven (7) milliliters of F2 media in seawater. The mixture was distributed evenly between six well plates. Ammonium chloride was added at various concentrations. Additional well plates were inoculated with the same Dunaliella culture, but were not treated with ammonium chloride. After approximately six days, optical density measurements at both 680 and 750 nanometers were taken in triplicate for each of the various ammonium chloride concentrations.
According to one exemplary method, thirty (30) microliters of a Dunaliella culture were inoculated into seven (7) milliliters of F2 media in seawater. The mixture was distributed evenly between six well plates. Ammonium hydroxide was added at various concentrations. Additional well plates were inoculated with the same Dunaliella culture, but were not treated with ammonium hydroxide. After approximately six days, optical density measurements at both 680 and 750 nanometers were taken in triplicate for each of the various ammonium hydroxide concentrations.

For `Cl.N` [ammonium chloride], the “effect on Nannochloropsis growth” value [1] was “did not inhibit Nannochloropsis growth” and the “effect on Dunaliella growth” value [2] was “did not inhibit Dunaliella growth”.

With `N` [ammonium hydroxide] the “effect on Nannochloropsis growth” value [1] was “did not inhibit Nannochloropsis growth” and the “effect on Dunaliella growth” value [2] was “did not inhibit Dunaliella growth”.

For `CP(=O)(O)CCC(N)C(=O)O` (stereo not shown) [glufosinate], the IC50 [1] was roughly 25 µM and the “effect on Nannochloropsis growth” value [1] was “controlled (inhibited) Nannochloropsis growth”.

For `O=C(O)CNCP(=O)(O)O` [glyphosate], the IC50 [1] was roughly 800 µM, the “effect on Nannochloropsis growth” value [1] was “controlled (inhibited) Nannochloropsis growth” and the IC50 ([2]; 144 h, read-out: concentration that inhibited Dunaliella growth by approximately fifty percent (50%)) was roughly 1200 µM. The “effect on Dunaliella growth” value [2] was “inhibited Dunaliella growth”.
